# Test results: the supplement of paper PMC10307832
# Assays:
# Experiment in all cases: relative viability (nuclei count vs DMSO), 5 days (fraction); higher = more cells survive
# [1] = compound: C1CSC2=C(C(=O)N1)SC3=C2C=C(C=C3)O [kb NB 142-70] + CS(=O)(=O)CCNCc1ccc(-c2ccc3ncnc(Nc4ccc(OCc5cccc(F)c5)c(Cl)c4)c3c2)o1 [Lapatinib] (partner 2 µM)
# Summary of the method: (§1)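 Dosing by pin tool came one day after lung cancer cell lines were seeded in 1536-well plates, using either one drug or a fixed anchor-drug dose plus five library-drug doses (not always all listed) in √10 steps. After 5 days, nuclei were counted on 4× images. Relative viability is treated-well nuclei count divided by vehicle-well nuclei count, and values are medians of duplicate plates.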
# [2] = compound: NCC(=O)Nc1ccc(-n2nc(C(F)(F)F)cc2-c2ccc3c(ccc4ccccc43)c2)cc1 + CC(=O)c1c(C)c2cnc(Nc3ccc(N4CCNCC4)cn3)nc2n(C2CCCC2)c1=O [Palbociclib] (partner 0.5 µM)
# Summary of the method: as §1
# [3] = compound: C1CSC2=C(C(=O)N1)SC3=C2C=C(C=C3)O [kb NB 142-70] + Cc1cc(Nc2cc(N3CCN(C)CC3)nc(Sc3ccc(NC(=O)C4CC4)cc3)n2)n[nH]1 [Tozasertib] (partner 0.1 µM)
# Summary of the method: as §1
# [4] = compound: C1CSC2=C(C(=O)N1)SC3=C2C=C(C=C3)O [kb NB 142-70] + CC(=O)Nc1cccc(-n2c(=O)n(C3CC3)c(=O)c3c(Nc4ccc(I)cc4F)n(C)c(=O)c(C)c32)c1 [Trametinib] (partner 0.02 µM)
# Summary of the method: as §1
# [5] = compound: NCC(=O)Nc1ccc(-n2nc(C(F)(F)F)cc2-c2ccc3c(ccc4ccccc43)c2)cc1 + CS(=O)(=O)CCNCc1ccc(-c2ccc3ncnc(Nc4ccc(OCc5cccc(F)c5)c(Cl)c4)c3c2)o1 [Lapatinib] (partner 2 µM)
# Summary of the method: as §1
cell line,measurement,setting,value
UMC-11,relative viability,[1]; first compound 0.1 µM,0.964
same,relative viability,[1]; first compound 1 µM,0.836
same,relative viability,[1]; first compound 3.162 µM,0.535
same,relative viability,[2]; first compound 0.02 µM,0.301
same,relative viability,[2]; first compound 0.06325 µM,0.305
same,relative viability,[2]; first compound 0.2 µM,0.297
same,relative viability,[2]; first compound 0.6325 µM,0.325
same,relative viability,[2]; first compound 2 µM,0.344
same,relative viability,[3]; first compound 0.1 µM,0.217
same,relative viability,[3]; first compound 1 µM,0.179
same,relative viability,[3]; first compound 3.162 µM,0.18
same,relative viability,[4]; first compound 0.1 µM,0.668
same,relative viability,[4]; first compound 1 µM,0.735
same,relative viability,[4]; first compound 3.162 µM,0.464
same,relative viability,[5]; first compound 0.02 µM,0.952
same,relative viability,[5]; first compound 0.06325 µM,1.09
same,relative viability,[5]; first compound 0.2 µM,0.985
same,relative viability,[5]; first compound 0.6325 µM,1.15
same,relative viability,[5]; first compound 2 µM,0.898
